Source: patent US20090105149A1, “Compounds comprising lpa” (ENKAM PHARMACEUTICALS A/S, priority 2003, published 2009)

Key:
[1] = system: hippocampal neurons; assay: Neurite outgrowth, hippocampal neurons; assay type: cell-based, rat
Experimental: The cultures were subsequently immunostained for tyrosine hydroxylase. Hippocampal neurons and CGN were plated at a density of 10,000 cells/cm^2 on 8-well permanox chamber slides and incubated for 24 hours in the presence of various concentrations of FGLd. Subsequently the neurons were immunostained for GAP-43. Results from at least five independent experiments for each neuronal culture are shown as percentage ±SEM with the untreated controls set at 100%. *p<0.05, **p<0.01, ***p<0.001 when compared to the controls.
Results from at least four independent experiments are shown as percentage SEM with untreated controls set at 100%. **p<0.01 when compared to the controls.
(§1) Peptide solutions without or with inhibitors of various signal transduction pathways were added to a total volume of 300 μl/cm^2, and the slides were incubated at 37° C. After 24 hours, the neurons were fixed with 4% (v/v) formaldehyde for 20 minutes and thereafter immunostained using primary rabbit antibodies against GAP-43 and Alexa Fluor secondary goat anti-rabbit antibodies. Images of at least 200 neurons for each group in each individual experiment were obtained systematically by using computer assisted fluorescence microscopy as previously described (Rønn et al., 2000 op. cit.). Briefly, a Nikon Diaphot inverted microscope with a Nikon Plan 20× objective (Nikon, Tokyo, Japan) coupled to a video camera (Grundig Electronics, Germany) was used for recordings. The same software package as described above for the dopaminergic neurite outgrowth assay was used to process the recorded images.

[2] = target: T1, rat FGFR1 (IIIC isoform) (Rattus norvegicus, UniProt Q04589); assay: Phosphorylation of FGFR1 in transfected HEK293 cells; assay type: cell-based; settings: 20 μg/ml; 20 min; HEK293 cells transfected with rat FGFR1
T1 construct: expressed in transfected cells; host or cells: HEK293 cells, transiently transfected with a pcDNA3.1(+) plasmid (Invitrogen)
Experimental: The EFL peptide is derived from the Fn 3, 2 module of NCAM and represents the E strand-loop-G strand part of the module. For the experiments the peptide was synthesised as described above. […] The peptide is also capable to bind and stimulate FGFR1 in cells expressing the receptor, wherein the peptide induces the receptor phosphorylation (at concentration 20 μg/ml by more then 300%). Phosphorylation of FGFR1 was studied using the following assay. […] Cells were grown for another 24 hrs in full medium, and then shifted to starvation media (DMEM 1965) overnight. FGFR transfected cells were stimulated for 20 min with the EFL monomer, lysed in 8M urea, 1 mM orthovanadate (in PBS) and purified from the lysate via the His-tag as follows: The lysate was loaded on Ni^2+/NTA-sepharose (Qiagen), washed with lysis buffer plus 10 mM imidazole, and the FGFR was eluted with lysis buffer plus 250 mM imidazole. The purified FGFR was analysed by immunoblotting using anti-pentahis (Qiagen) or anti-phosphotyrosine (PY20, Transduction Laboratories) antibodies. The bands were visualised by chemilumiscense and the band density was measured using a GeneGnome apparatus (SynGene).

[3] = system: cerebellar granule neurons (CGN); assay: Survival of CGN induced to undergo apoptosis by low KCl; settings: individual monomer; low KCl
Experimental: Cerebella granular meurons (CGN) (e and f) from postnatal day 7 rats were grown at a density of 100,000 cells/cm^2 for 7 days on poly-L-lysine coated microtiter plates in the medium containing 40 mM KCl, then the medium was substituted to a 5 mM KCl containing medium supplemented with various concentrations of FGLd.
For the experiments cerebellar tissue was dissected in modified Krebs-Ringer solution kept on ice, and treated as described for the hippocampal neurons above. All cell cultures were incubated at 37° C. in a humidified atmosphere containing 5% CO2.
Primary cultures of CGN were plated at a density of 100,000 cells/cm^2 on poly-L-lysine coated 8-well permanox slides in Neurobasal-A medium (Gibco, BRL) supplemented with 2% (v/v) B27, 0.5% (v/v) glutamax, 100 U/ml penicillin, 100 μg/ml streptomycin and KCl, making the final concentration of KCl in the medium 40 mM. 24 hours after plating, cytosine-β-D-arabinofuranoside (Ara-C; Sigma-Aldrich) was added to a final concentration of 10 μM to avoid proliferation of glial cells, after which the neurons were allowed to differentiate for further six days at 37° C. Apoptotic cell death was induced by washing twice and changing the medium to Basal Medium Eagle (BME; Gibco BRL) supplemented with 1% (v/v) glutamine, 100 U/ml penicillin and 100 μg/ml streptomycin, 3.5 g D-glucose/l and 1% (v/v) sodium pyruvate (Gibco BRL) together with various concentrations of peptide. Thereby the concentration of potassium in the cultures was reduced to 5 mM KCl. Two days after induction of apoptosis, the cells were fixed with 4% formaldehyde and stained with Hoechst 33258 as described for the survival assay employing hippocampal neurons.

[4] = system: FGL-induced survival of CGN; assay: Effect of inhibitors of FGFR, MEK and PI3K on FGL-induced survival of CGN; assay type: cell-based, rat; settings: 10 μg/ml FGLd, low KCl
Experimental: Thereafter the MEK inhibitor PD98059 ([…]), PI3K inhibitor LY294002 (▴) and FGFR inhibitor SU5402 (▪) were added at various concentrations. The addition of the inhibitors followed in all cases by the addition of 10 μg/ml FGLd. […] Results from at least four individual experiments are shown as percentage of the number of live neurons relative to the total number of neurons ±SEM, with control cultures treated with FGLd set at 100%.

[5] = system: FGL-induced neurite outgrowth in CGN cultures; assay: Effect of inhibitors of FGFR, MEK and PI3K on FGL-induced neurite outgrowth in CGN; assay type: cell-based, rat; settings: for FGLd-induced neurite outgrowth in CGN in presence of inhibitor: FGLd-treated control = 100%
Experimental: CGN cultures were grown for 24 hours at a density of 10,000 cells/cm^2 on 8-well permanox slides in the presence of the FGL peptide and an inhibitor. PD98059 ([…]) was added at concentrations of 12.5, 25 and 50 μM simultaneously with 10 μg/ml FGLd; LY294002 (▴) was added at concentrations of 3.5, 7 and 10 μM simultaneously with 27 μg/ml FGLd. SU5402 (▪) was added in concentrations of 20, 40 and 80 μM simultaneously with 27 μg/ml FGLd. After the treatment cells were fixed and immunostained for GAP-43. Results from at least four independent experiments are shown as percentage ±SEM, with FGLd-treated control cultures set at 100%. The dashed line indicates the average neurite length in cultures without FGLd-treatment. *p<0.05, **p<0.01 when compared to the FGLd-treated controls.
as §1

[6] = system: FGL-induced neurite outgrowth in CGN cultures; settings: previously found; cited from earlier work
[7] = system: hippocampal neurons; assay: FM 1-43 destaining (presynaptic vesicle turnover) in hippocampal neurons; assay type: cell-based, rat; settings: added simultaneously with FGLd
Experimental: The values were compared using an unpaired t-test. *p=0.04 (1 h) and **p=0.0032 (48 h). FGLcontrol is a control peptide consisting the sequence […] (SEQ ID NO: 147).
The effects of FGLd on vesicle turnover was estimated in primary cultures of hippocampal neurons from embryonic rats (E19). The cultures were prepared as above. Following 13-16 days in vitro, FGLd was added to the cultures and incubated for 1, 24 or 48 hours. After 48 hours of incubation, the FGFR-inhibitor (SU 5402) was added simultaneously with FGLd to some of the cultures.
After treatment with FGLd the neurons were labeled with the fluorescent membrane probe FM 1-43 as described by Kiryushko et al (2003) J Biol. Chem. 278:12325-34. The rate of FM 1-43 release (destaining of cells) evoked by depolarisation with 90 mM potassium was then evaluated by a time-lapse image acquisition using the Radiance 2000 scanning system and a Nikon eclipse TE200 confocal microscopy.

[8] = system: dissociated hippocampal neurons; assay: OGD, metabolic activity (MTS) in dissociated hippocampal cell cultures; assay type: cell-based, rat; settings: inhibitor 25 μM together with FGLd for 24 hours before OGD
Source text: (§2) In the present study it was investigated the effect of the FGL peptide on synaptic plasticity, neuronal function and vulnerability following oxygen and glucose deprivation (OGD) in organotypic hippocampal neuronal slice cultures (OHSC) from 7-day-old Wistar rats according to method of Stoppini et al. (1991) Neurosci Methods. 37:173-82 and primary cultures of dissociated hippocampal neurons from 1-day-old rats according to method of Maar et al. (1997) J Neurosci Res. 47:163-72. Primary cell cultures were maintained for 11-12 days and OHSC for 12-14 days prior to adding FGLd.
(§3) The primary cell cultures and OHSC were exposed to OGD for 10 and 20 minutes. Following OGD, the cultures were again supplied with oxygen and glucose and analysed at 1, 4 or 24 hour time point after introduction of OGD exposure. FGLd (or the control peptide FGLc) was added 24 hr before, immediately, or 1 hr or 24 hr after OGD. When administered prior to OGD, FGLd was removed from the medium when introducing OGD. In some cases, the slice cultures were treated with FGLd only at 4 hr after OGD. In addition, the FGFR inhibitor, SU5402 (25 μM), was added together with FGLd in some of the set-ups.
(§4) In hippocampal neuronal cultures, FM 1-43 staining was used to evaluate pre-synaptic function (described above). Cell viability in both primary cell cultures and OHSC was measured using the […] [3-(4,5-dimethylthiazol-2-yl)-2,5-diphenyltetrazolium bromide] assay according to Malich et al, (1997) Toxicology. 124:179-92. In, addition, cell viability in OHSC was measured using propidium iodide (PI) staining according to Laake et al. (1999) Brain Res Brain Res Protoc. 4:173-84.

[9] = system: dissociated hippocampal neurons; assay: OGD, FM 1-43 release in dissociated hippocampal cell cultures; assay type: cell-based, rat; settings: together with FGLd
Source text: as §2, §3, §4

[10] = system: organotypic hippocampal neuronal slice cultures (OHSC); assay: OGD, propidium iodide staining of OHSC; assay type: cell-based, rat; settings: inhibitor together with FGLd
Source text: as §2, §3, §4

T1 sequence (Q04589 22-822): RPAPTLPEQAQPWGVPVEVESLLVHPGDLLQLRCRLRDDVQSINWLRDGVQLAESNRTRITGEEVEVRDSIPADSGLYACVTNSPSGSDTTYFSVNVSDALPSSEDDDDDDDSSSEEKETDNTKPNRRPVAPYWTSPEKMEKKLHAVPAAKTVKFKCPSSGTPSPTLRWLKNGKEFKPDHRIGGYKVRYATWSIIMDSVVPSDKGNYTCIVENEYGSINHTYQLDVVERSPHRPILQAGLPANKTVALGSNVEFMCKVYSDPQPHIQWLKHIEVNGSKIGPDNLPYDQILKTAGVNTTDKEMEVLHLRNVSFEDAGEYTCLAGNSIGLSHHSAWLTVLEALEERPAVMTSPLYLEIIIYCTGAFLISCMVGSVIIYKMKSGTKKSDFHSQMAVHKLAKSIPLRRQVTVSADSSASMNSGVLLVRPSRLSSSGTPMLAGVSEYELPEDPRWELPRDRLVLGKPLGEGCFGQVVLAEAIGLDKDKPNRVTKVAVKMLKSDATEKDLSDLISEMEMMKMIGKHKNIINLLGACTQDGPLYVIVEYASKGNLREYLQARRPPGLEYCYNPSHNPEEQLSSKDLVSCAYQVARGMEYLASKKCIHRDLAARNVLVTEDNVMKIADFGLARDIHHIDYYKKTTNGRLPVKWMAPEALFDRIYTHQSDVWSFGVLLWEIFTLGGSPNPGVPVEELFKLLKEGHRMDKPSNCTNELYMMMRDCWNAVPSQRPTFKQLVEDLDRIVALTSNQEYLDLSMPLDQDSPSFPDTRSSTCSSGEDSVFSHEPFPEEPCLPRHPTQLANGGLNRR

Q: With “NIEVWVEAENALGKKV (Interleukin-6 receptor beta chain [Swiss-Prot: Q00560]: FGFR binding motif) [EFL peptide]” as the molecule, how does the “neurite outgrowth of rat hippocampal neurons” value ([1]; individual monomer) read?
A: strongly stimulate neurite outgrowth

Q: And the “FGFR1 phosphorylation induced by the peptide” value [2]?
A: > 300%

Q: What about the “survival of rat cerebellar neurons” value [3] of the same molecule?
A: stimulate survival

Q: With `COc1cccc(-c2cc(=O)c3ccccc3o2)c1N` [PD98059] as the molecule, how does the “inhibition of FGLd-induced survival of CGN” value (“inhibition” for short) ([4]; 12.5 μM inhibitor) read?
A: inhibited cell survival induced by FGLd to the level of the control cultures

Q: What about the “FGLd-induced neurite outgrowth in CGN in presence of inhibitor” value ([5]; inhibitor above 25 μM, 10 μg/ml FGLd) of the same molecule?
A: 75%

Q: What about the “effect on basal neurite outgrowth in CGN” value [6] of the same molecule?
A: not to affect the basal neurite outgrowth

Q: With `Cc1c[nH]c(/C=C2\C(=O)Nc3ccccc32)c1CCC(=O)O` [SU5402] as the molecule, how does the “inhibition” value ([4]; 20 μM inhibitor) read?
A: significantly inhibited the survival response to FGLd

Q: And the “inhibition” value ([4]; 40 μM inhibitor)?
A: reduced the FGLd-induced survival to the survival rate of the untreated apoptosis-induced control neurons

Q: And the “block of EFL-stimulated neuritogenic activity by inhibitor of FGFR1” value ([1]; with EFL peptide)?
A: specifically blocked

Q: What about the “FGLd-induced neurite outgrowth in CGN in presence of inhibitor” value ([5]; 80 μM inhibitor, 27 μg/ml FGLd) of the same molecule?
A: 35%

Q: What about the “effect on neurite outgrowth in control CGN cultures not treated with FGLd” value ([5]; data not shown) of the same molecule?
A: without significant effect on neurite outgrowth

Q: And the “effect of FGFR inhibitor on FGLd-increased FM 1-43 destaining” value [7]?
A: abolished the effect of FGLd

Q: And the “metabolic activity after OGD, FGLd pretreatment with FGFR-inhibitor present” value [8]?
A: did not diminish the OGD-induced reduction in metabolic activity

Q: What about the “effect of FGFR-inhibitor on FGLd action on OGD-induced decrease in FM 1-43 release” value [9] of the same molecule?
A: abrogated the effect of FGLd

Q: And the “PI staining after OGD, pre-incubation with FGFR-inhibitor together with FGLd” value [10]?
A: the PI staining was similar to that of OGD alone
